Assays:
Type in all cases: in vivo
[1] = test system: crabgrass (Digitaria sanguinalis); test: Test B postemergence
How it was run: (§1)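 Seeds were planted and sprayed preemergence with test chemical in a non-phytotoxic solvent mixture containing surfactant; postemergence plants (2 to 18 cm, 1- to 4-leaf stage) received the same formulation. Greenhouse hold 13 to 15 days, then visual rating versus untreated controls on a 0–100 scale (0 no effect, 100 complete control).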

wild oat (Avena fatua) = test: Test B postemergence
How it was run: as §1

[2] = test system: lambsquarters (Chenopodium album); test: Test B postemergence
How it was run: as §1

[3] = test system: cocklebur (Xanthium strumarium); test: Test B postemergence
How it was run: as §1

[4] = test system: velvetleaf (Abutilon theophrasti); test: Test C preemergence
Source text: (§2) Seeds of plant species selected from bermudagrass (Cynodon dactylon), Surinam grass (Brachiaria decumbens), cocklebur (Xanthium strumarium), corn (Zea mays), crabgrass (Digitaria sanguinalis), woolly cupgrass (Eriochloa villosa), giant foxtail (Setaria faberii), goosegrass (Eleusine indica), johnsongrass (Sorghum halepense), kochia (Kochia scoparia), lambsquarters (Chenopodium album), morningglory (Ipomoea hederacea), yellow nutsedge (Cyperus esculentus), pigweed (Amaranthus retroflexus), common ragweed (Ambrosia elatior), soybean (Glycine max) and velvetleaf (Abutilon theophrasti) were planted and treated preemergence with test chemicals formulated in a non-phytotoxic solvent mixture which included a surfactant.
(§3) At the same time, plants selected from these crop and weed species and also winter barley (Hordeum vulgare), blackgrass (Alopecurus myosuroides), canary grass (Phalaris minor), chickweed (Stellaria media), downy brome (Bromus tectorum), green foxtail (Setaria viridis), Italian ryegrass (Lolium multiflorum), wheat (Triticum aestivum), wild oat (Avena fatua) and windgrass (Apera spica-venti) were treated with postemergence applications of some of the test chemicals formulated in the same manner. Plants ranged in height from 2 to 18 cm (1- to 4-leaf stage) for postemergence treatments. Plant species in the flooded paddy test consisted of rice (Oryza saliva), smallflower flatsedge (Cyperus difformis), duck salad (Heteranthera limosa) and barnyardgrass (Echinochloa crus-galli) grown to the 2-leaf stage for testing. Treated plants and controls were maintained in a greenhouse for 12 to 14 days, after which time all species were compared to controls and visually evaluated. Plant response ratings, summarized in Table C, are based on a scale of 0 to 100 where 0 is no effect and 100 is complete control. A dash (-) response means no test result.

[5] = test system: johnsongrass (Sorghum halepense); test: Test C preemergence
Source text: as §2, §3

[6] = test system: Surinam grass (Brachiaria decumbens); test: Test C preemergence
Source text: as §2, §3

Sunflower = test: Test C preemergence; details: Rate 125 g/ha; scale 0 to 100, 0 no effect, 100 complete control
Source text: as §2, §3

[7] = test system: woolly cupgrass (Eriochloa villosa); test: Test C preemergence
Source text: as §2, §3

[8] = test system: lambsquarters (Chenopodium album); test: Test C preemergence
Source text: as §2, §3

[9] = test system: common ragweed (Ambrosia elatior); test: Test C preemergence
Source text: as §2, §3

Nightshade = test: Test C preemergence
Source text: as §2, §3

corn (Zea mays) = test: Test C preemergence
Source text: as §2, §3

[10] = test system: bermudagrass (Cynodon dactylon); test: Test C preemergence
Source text: as §2, §3

[11] = test system: giant foxtail (Setaria faberii); test: Test C preemergence
Source text: as §2, §3

soybean (Glycine max) = test: Test C preemergence
Source text: as §2, §3

[12] = test system: cocklebur (Xanthium strumarium); test: Test C preemergence
Source text: as §2, §3

[13] = test system: pigweed (Amaranthus retroflexus); test: Test C preemergence
Source text: as §2, §3

kochia (Kochia scoparia) = test: Test C preemergence
Source text: as §2, §3

[14] = Rate 125 g/ha, scale 0 (no effect) to 100 (complete control), 13 to 15 days
[15] = Rate 500 g/ha, scale 0 to 100, 0 is no effect, 100 is complete control, 13 to 15 days
[16] = Rate 125 g/ha, scale 0 to 100, 0 no effect, 100 complete control
[17] = preemergence, Rate 31 g/ha, scale 0 to 100
[18] = preemergence, Rate 62 g/ha, scale 0 to 100
[19] = preemergence, Rate 250 g/ha, scale 0 to 100, 0 no effect, 100 complete control
[20] = Rate 250 g/ha, scale 0 to 100, 0 no effect, 100 complete control
[21] = Rate 62 g/ha, scale 0 to 100, 0 no effect, 100 complete control
[22] = Rate 250 g/ha, scale 0 (no effect) to 100 (complete control), 13 to 15 days

## CCCC(C)c1ccn(C2SCN(c3cccc(OC(F)(F)F)c3)C2=O)n1 (centres unmarked) [Compound 90]
[1]; [14]
  Plant response rating, Crabgrass: 20
[1]; [15]
  Plant response rating, Crabgrass: 50
Wild oat (Avena fatua); [15]
  Plant response rating, Wild Oat: 20
[2]; [15]
  Plant response rating, Lambsquarters: 100
[3]; [14]
  Plant response rating, Cocklebur: 20
[3]; [15]
  Plant response rating, Cocklebur: 60
[4]; [16]
  Plant response rating, Velvetleaf: 0
[4]; [17]
  Plant response rating, Velvetleaf: 0
[4]; [18]
  Plant response rating, Velvetleaf: 0
[4]; [19]
  Plant response rating, Velvetleaf: 0
[5]; [16]
  Plant response rating, Johnsongrass: 70
[5]; [17]
  Plant response rating, Johnsongrass: 10
[5]; [18]
  Plant response rating, Johnsongrass: 10
[5]; [19]
  Plant response rating, Johnsongrass: 100
[6]; [16]
  Plant response rating, Surinam grass: 10
[6]; [17]
  Plant response rating, Surinam grass: 0
[6]; [18]
  Plant response rating, Surinam grass: 0
[6]; [19]
  Plant response rating, Surinam grass: 40
Sunflower
  Plant response rating, Sunflower: 0
[7]; [16]
  Plant response rating, Cupgrass, Woolly: 10
[7]; [17]
  Plant response rating, Cupgrass, Woolly: 0
[7]; [18]
  Plant response rating, Cupgrass, Woolly: 0
[7]; [19]
  Plant response rating, Cupgrass, Woolly: 60
[8]; [16]
  Plant response rating, Lambsquarters: 100
[8]; [17]
  Plant response rating, Lambsquarters: 10
[8]; [18]
  Plant response rating, Lambsquarters: 100
[8]; [19]
  Plant response rating, Lambsquarters: 100
[9]; [16]
  Plant response rating, Ragweed, Common: 0
[9]; [17]
  Plant response rating, Ragweed, Common: 0
[9]; [18]
  Plant response rating, Ragweed, Common: 0
[9]; [19]
  Plant response rating, Ragweed, Common: 0
Nightshade; Rate 31 g/ha, scale 0 to 100
  Plant response rating, Nightshade: 0
Nightshade; Rate 62 g/ha, scale 0 to 100
  Plant response rating, Nightshade: 0
Nightshade; [16]
  Plant response rating, Nightshade: 0
Nightshade; [20]
  Plant response rating, Nightshade: 0
Corn (Zea mays); [16]
  Plant response rating, Corn: 0
Corn (Zea mays); [17]
  Plant response rating, Corn: 0
Corn (Zea mays); [18]
  Plant response rating, Corn: 0
Corn (Zea mays); [19]
  Plant response rating, Corn: 10
[10]; [16]
  Plant response rating, Bermudagrass: 100
[10]; [17]
  Plant response rating, Bermudagrass: 0
[10]; [18]
  Plant response rating, Bermudagrass: 0
[10]; [19]
  Plant response rating, Bermudagrass: 100
[11]; [16]
  Plant response rating, Foxtail, Giant: 0
[11]; [17]
  Plant response rating, Foxtail, Giant: 0
[11]; [18]
  Plant response rating, Foxtail, Giant: 40
[11]; [19]
  Plant response rating, Foxtail, Giant: 40
Soybean (Glycine max); [16]
  Plant response rating, Soybean: 0
Soybean (Glycine max); [17]
  Plant response rating, Soybean: 0
Soybean (Glycine max); [18]
  Plant response rating, Soybean: 0
Soybean (Glycine max); [19]
  Plant response rating, Soybean: 0
[12]; [16]
  Plant response rating, Cocklebur: 0
[12]; [17]
  Plant response rating, Cocklebur: 0
[12]; [18]
  Plant response rating, Cocklebur: 0
[12]; [19]
  Plant response rating, Cocklebur: 0
[13]; [16]
  Plant response rating, Pigweed: 0
[13]; [17]
  Plant response rating, Pigweed: 0
[13]; [18]
  Plant response rating, Pigweed: 60
[13]; [19]
  Plant response rating, Pigweed: 100
Kochia (Kochia scoparia); [16]
  Plant response rating, Kochia: 40
Kochia (Kochia scoparia); [17]
  Plant response rating, Kochia: 0
Kochia (Kochia scoparia); [18]
  Plant response rating, Kochia: 0
Kochia (Kochia scoparia); [19]
  Plant response rating, Kochia: 80

## Cc1ccc(N2CCC(n3ccc(C(C)(C)C)n3)C2=O)cc1OCCCl (centres unmarked) [Compound 109]
[1]; [21]
  Plant response rating, Crabgrass: 0
[1]; [14]
  Plant response rating, Crabgrass: 0
[1]; [22]
  Plant response rating, Crabgrass: 0
[1]; [15]
  Plant response rating, Crabgrass: 0
Wild oat (Avena fatua); [21]
  Plant response rating, Wild Oat: 0
Wild oat (Avena fatua); [22]
  Plant response rating, Wild Oat: 0
Wild oat (Avena fatua); [15]
  Plant response rating, Wild Oat: 0
[2]; [21]
  Plant response rating, Lambsquarters: 80
[2]; [22]
  Plant response rating, Lambsquarters: 90
[2]; [15]
  Plant response rating, Lambsquarters: 90
[3]; [21]
  Plant response rating, Cocklebur: 60
[3]; [14]
  Plant response rating, Cocklebur: 40
[3]; [22]
  Plant response rating, Cocklebur: 70
[3]; [15]
  Plant response rating, Cocklebur: 90
[4]; [16]
  Plant response rating, Velvetleaf: 100
[4]; [17]
  Plant response rating, Velvetleaf: 50
[4]; [18]
  Plant response rating, Velvetleaf: 100
[4]; [19]
  Plant response rating, Velvetleaf: 100
[5]; [16]
  Plant response rating, Johnsongrass: 50
[5]; [17]
  Plant response rating, Johnsongrass: 0
[5]; [18]
  Plant response rating, Johnsongrass: 10
[5]; [19]
  Plant response rating, Johnsongrass: 50
[6]; [16]
  Plant response rating, Surinam grass: 80
[6]; [17]
  Plant response rating, Surinam grass: 0
[6]; [18]
  Plant response rating, Surinam grass: 0
[6]; [19]
  Plant response rating, Surinam grass: 90
Sunflower
  Plant response rating, Sunflower: 90
[7]; [16]
  Plant response rating, Cupgrass, Woolly: 90
[7]; [17]
  Plant response rating, Cupgrass, Woolly: 10
[7]; [18]
  Plant response rating, Cupgrass, Woolly: 90
[7]; [19]
  Plant response rating, Cupgrass, Woolly: 100
[8]; [16]
  Plant response rating, Lambsquarters: 100
[8]; [17]
  Plant response rating, Lambsquarters: 100
[8]; [18]
  Plant response rating, Lambsquarters: 100
[8]; [19]
  Plant response rating, Lambsquarters: 100
[9]; [16]
  Plant response rating, Ragweed, Common: 100
[9]; [17]
  Plant response rating, Ragweed, Common: 10
[9]; [18]
  Plant response rating, Ragweed, Common: 90
[9]; [19]
  Plant response rating, Ragweed, Common: 100
Nightshade; Rate 31 g/ha, scale 0 to 100
  Plant response rating, Nightshade: 50
Nightshade; Rate 62 g/ha, scale 0 to 100
  Plant response rating, Nightshade: 90
Nightshade; [16]
  Plant response rating, Nightshade: 100
Nightshade; [20]
  Plant response rating, Nightshade: 100
Corn (Zea mays); [16]
  Plant response rating, Corn: 0
Corn (Zea mays); [17]
  Plant response rating, Corn: 0
Corn (Zea mays); [18]
  Plant response rating, Corn: 0
Corn (Zea mays); [19]
  Plant response rating, Corn: 0
[10]; [16]
  Plant response rating, Bermudagrass: 100
[10]; [17]
  Plant response rating, Bermudagrass: 100
[10]; [18]
  Plant response rating, Bermudagrass: 100
[10]; [19]
  Plant response rating, Bermudagrass: 100
[11]; [16]
  Plant response rating, Foxtail, Giant: 20
[11]; [17]
  Plant response rating, Foxtail, Giant: 0
[11]; [18]
  Plant response rating, Foxtail, Giant: 0
[11]; [19]
  Plant response rating, Foxtail, Giant: 90
Soybean (Glycine max); [16]
  Plant response rating, Soybean: 90
Soybean (Glycine max); [17]
  Plant response rating, Soybean: 20
Soybean (Glycine max); [18]
  Plant response rating, Soybean: 80
Soybean (Glycine max); [19]
  Plant response rating, Soybean: 90
[12]; [16]
  Plant response rating, Cocklebur: 30
[12]; [17]
  Plant response rating, Cocklebur: 0
[12]; [18]
  Plant response rating, Cocklebur: 0
[12]; [19]
  Plant response rating, Cocklebur: 30
[13]; [16]
  Plant response rating, Pigweed: 70
[13]; [17]
  Plant response rating, Pigweed: 20
[13]; [18]
  Plant response rating, Pigweed: 20
[13]; [19]
  Plant response rating, Pigweed: 80
Kochia (Kochia scoparia); [16]
  Plant response rating, Kochia: 100
Kochia (Kochia scoparia); [17]
  Plant response rating, Kochia: 90
Kochia (Kochia scoparia); [18]
  Plant response rating, Kochia: 100
Kochia (Kochia scoparia); [19]
  Plant response rating, Kochia: 100
